PubChem BioAssay AID248 (DTP/NCI, 2004)
“And” between values parts separate entries of the source, which are not always exact repeats. Equal values may be shown once. Toxic doses and inconclusive results are not listed. No stated cut-off is given here; in the data, active means T/C of 150% or more; inactive means T/C below 125%.

System: L1210 leukemia ip in BDF1 mice, survival T/C
Experiment: NCI In Vivo Anticancer Drug Screen. Data for tumor model L1210 Leukemia (intraperitoneal) in B6D2F1 (BDF1) mice
Settings: endpoint: mean survival time, higher = longer survival
How it was run: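 Read-out is survival time, reported as the treated-group measurement over the vehicle-control measurement.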

[1] = dose: 100.0 mg/kg/injection, schedule: Q04DX003 (ip), vehicle: Klucel (hydroxypropylcellulose) (HPC)
[2] = dose: 200.0 mg/kg/injection, schedule: Q04DX003 (ip), vehicle: Klucel (hydroxypropylcellulose) (HPC)
[3] = dose: 400.0 mg/kg/injection, schedule: Q04DX003 (ip), vehicle: Klucel (hydroxypropylcellulose) (HPC)
[4] = dose: 100.0 mg/kg/injection, schedule: Q01DX001 (ip), vehicle: saline
[5] = dose: 200.0 mg/kg/injection, schedule: Q01DX001 (ip), vehicle: saline
[6] = dose: 400.0 mg/kg/injection, schedule: Q01DX001 (ip), vehicle: saline
[7] = dose: 100.0 mg/kg/injection, schedule: Q01DX009 (ip), vehicle: saline with Tween-80
[8] = dose: 25.0 mg/kg/injection, schedule: Q01DX009 (ip), vehicle: saline with Tween-80
[9] = dose: 100.0 mg/kg/injection, schedule: Q01DX005 (ip), vehicle: saline
[10] = dose: 200.0 mg/kg/injection, schedule: Q01DX005 (ip), vehicle: saline
[11] = dose: 50.0 mg/kg/injection, schedule: Q01DX009 (ip), vehicle: Klucel (hydroxypropylcellulose) (HPC)
[12] = dose: 100.0 mg/kg/injection, schedule: Q01DX009 (ip), vehicle: Klucel (hydroxypropylcellulose) (HPC)
[13] = dose: 200.0 mg/kg/injection, schedule: Q01DX009 (ip), vehicle: Klucel (hydroxypropylcellulose) (HPC)
[14] = dose: 100.0 mg/kg/injection, schedule: Q04DX003 (ip), vehicle: saline
[15] = dose: 200.0 mg/kg/injection, schedule: Q04DX003 (ip), vehicle: saline
[16] = dose: 400.0 mg/kg/injection, schedule: Q04DX003 (ip), vehicle: saline
[17] = dose: 100.0 mg/kg/injection, schedule: Q01DX001 (ip), vehicle: carboxymethylcellulose (CMC)
[18] = dose: 200.0 mg/kg/injection, schedule: Q01DX001 (ip), vehicle: carboxymethylcellulose (CMC)
[19] = dose: 400.0 mg/kg/injection, schedule: Q01DX001 (ip), vehicle: carboxymethylcellulose (CMC)

Measured: T/C

CC1CCC(C(C)C)C(NCc2cc(Cl)cc(Cl)c2O)C1 (centres undefined)
inactive: [1] 104 % of control | [2] 101 % of control | [3] 97 % of control

N#CCCN1CCCC1=O
inactive: [4] 103 % of control | [5] 100 % of control | [6] 106 % of control

O=NN(C(=O)c1ccccc1)C(c1ccccc1)c1ccc(Cl)cc1 (centres undefined)
inactive: dose: 45.0 mg/kg/injection, schedule: Q04DX002 (ip), vehicle: Klucel (hydroxypropylcellulose) (HPC) 91 % of control | dose: 90.0 mg/kg/injection, schedule: Q04DX002 (ip), vehicle: Klucel (hydroxypropylcellulose) (HPC) 91 % of control | dose: 180.0 mg/kg/injection, schedule: Q04DX002 (ip), vehicle: Klucel (hydroxypropylcellulose) (HPC) 97 % of control

COC(=O)C1CC2C(CCC3C(C)(C(=O)OC)CCCC23C)C(=O)C1(O)C(C)C (centres undefined)
inactive: [7] 95 % of control | dose: 200.0 mg/kg/injection, schedule: Q01DX009 (ip), vehicle: saline with Tween-80 90 % of control | dose: 400.0 mg/kg/injection, schedule: Q01DX009 (ip), vehicle: saline with Tween-80 91 % of control

CC(=O)OC1/C=C/C(C)=C/CC(O)/C=C/C(C)=C/C(NC(=O)C(C)=O)C2(C)C(=O)OC(C1)C(C)C2=O (centres undefined)
inactive: dose: 25.0 mg/kg/injection, schedule: Q01DX001 (ip), vehicle: saline with Tween-80 102 % of control | [8] 101 % of control | dose: 50.0 mg/kg/injection, schedule: Q01DX001 (ip), vehicle: saline with Tween-80 94 % of control | dose: 50.0 mg/kg/injection, schedule: Q01DX009 (ip), vehicle: saline with Tween-80 104 % of control | dose: 100.0 mg/kg/injection, schedule: Q01DX001 (ip), vehicle: saline with Tween-80 97 % of control | [7] 103 % of control

CC(C)(C)CC(C)(C)NCC#N
inactive: dose: 6.25 mg/kg/injection, schedule: Q04DX003 (ip), vehicle: Klucel (hydroxypropylcellulose) (HPC) 92 % of control | dose: 12.5 mg/kg/injection, schedule: Q04DX003 (ip), vehicle: Klucel (hydroxypropylcellulose) (HPC) 95 % of control | dose: 25.0 mg/kg/injection, schedule: Q04DX003 (ip), vehicle: Klucel (hydroxypropylcellulose) (HPC) 92 % of control and 96 % of control

Cc1ccc(OCC(=O)Nc2c(Cl)cc(Cl)cc2Cl)c(C)c1
inactive: dose: 100.0 mg/kg/injection, schedule: Q04DX002 (ip), vehicle: gum acacia 92 % of control | dose: 200.0 mg/kg/injection, schedule: Q04DX002 (ip), vehicle: gum acacia 89 % of control

N/C(=N\O)c1ncn(C2OC(CO)C(O)C2O)c1N (centres undefined)
inactive: [9] 103 % of control | [10] 108 % of control

CSc1nc(O)c(-c2ccccc2)c(=O)[nH]1
inactive: dose: 100.0 mg/kg/injection, schedule: Q01DX Z (ip), vehicle: methylcellulose (MC) 103 % of control | dose: 200.0 mg/kg/injection, schedule: Q01DX Z (ip), vehicle: methylcellulose (MC) 101 % of control

CC1=CCCC(C)(C)C1C=C1C(=O)NC(=S)NC1=O (centres undefined)
inactive: [11] 92 % of control | [12] 98 % of control | [13] 109 % of control

O=C1OC2(c3ccc(O)cc3Oc3cc(O)ccc32)C2C3C=CC(C3)C12 (centres undefined)
inactive: [11] 98 % of control | [12] 104 % of control | [14] 98 % of control | [13] 97 % of control | [15] 92 % of control | [16] 95 % of control

CC(=O)Oc1cc(C)c2c(c1C)C1OC(=O)C(C)C1CC2 (centres undefined)
inactive: dose: 100.0 mg/kg/injection, schedule: Q01DX001 (ip), vehicle: other 98 % of control | dose: 200.0 mg/kg/injection, schedule: Q01DX001 (ip), vehicle: other 98 % of control | dose: 400.0 mg/kg/injection, schedule: Q01DX001 (ip), vehicle: other 97 % of control

Nc1nccc2n[nH]nc12
inactive: dose: 100.0 mg/kg/injection, schedule: Q01DX001 (ip), vehicle: Klucel (hydroxypropylcellulose) (HPC) 100 % of control | [1] 103 % of control | dose: 200.0 mg/kg/injection, schedule: Q01DX001 (ip), vehicle: Klucel (hydroxypropylcellulose) (HPC) 92 % of control | [2] 101 % of control | dose: 400.0 mg/kg/injection, schedule: Q01DX001 (ip), vehicle: Klucel (hydroxypropylcellulose) (HPC) 97 % of control | [3] 101 % of control

Oc1cccc(NC(=S)Nc2ccccc2)c1
inactive: dose: 50.0 mg/kg/injection, schedule: Q01DX001 (ip), vehicle: saline 100 % of control | [4] 94 % of control | [5] 97 % of control | [6] 97 % of control

CN(C)C=O.CN(C)C=O.[Cl][Sn]([Cl])([Cl])[Cl]
inactive: [11] 103 % of control | [12] 93 % of control | [1] 92 % of control | [2] 92 % of control

O=C1NC2C3CCC(C3)C12 (centres undefined)
inactive: dose: 10.0 mg/kg/injection, schedule: Q04DX002 (ip), vehicle: saline 90 % of control | dose: 20.0 mg/kg/injection, schedule: Q04DX002 (ip), vehicle: saline 107 % of control | dose: 40.0 mg/kg/injection, schedule: Q04DX002 (ip), vehicle: saline 93 % of control

Cc1cn(C2CC(O)C(COC(c3ccccc3)(c3ccccc3)c3ccccc3)O2)c(=O)[nH]c1=O (centres undefined)
inactive: [9] 104 % of control | [10] 96 % of control

CC(=O)OCC1OC(N2C(=O)/C(=C/c3ccncc3)SC2=S)C(OC(C)=O)C(OC(C)=O)C1OC(C)=O (centres undefined)
inactive: dose: 25.0 mg/kg/injection, schedule: Q01DX005 (ip), vehicle: other 97 % of control | dose: 50.0 mg/kg/injection, schedule: Q01DX005 (ip), vehicle: other 94 % of control | dose: 100.0 mg/kg/injection, schedule: Q01DX005 (ip), vehicle: other 97 % of control | dose: 400.0 mg/kg/injection, schedule: Q01DX005 (ip), vehicle: other 86 % of control

O=P(C1CCCCC1)(C1CCCCC1)C1CCCCC1
inactive: [12] 89 % of control | [13] 97 % of control

CC1c2nc(N)nc(N)c2CN1C(=O)c1ccccc1 (centres undefined)
inactive: [17] 98 % of control | [18] 98 % of control | [19] 97 % of control

Clc1cc(Cl)c(I)c(Cl)c1
inactive: [12] 95 % of control | [1] 93 % of control | [13] 95 % of control | [2] 95 % of control | [3] 92 % of control

O=C(CCN1C(=O)c2ccccc2C1=O)c1ccc(O)cc1
inactive: dose: 6.25 mg/kg/injection, schedule: Q01DX009 (ip), vehicle: saline with Tween-80 97 % of control | dose: 12.5 mg/kg/injection, schedule: Q01DX009 (ip), vehicle: saline with Tween-80 98 % of control | [8] 91 % of control

O=C(O)C1CC=CCC1C(=O)O (centres undefined)
inactive: [9] 95 % of control | dose: 100.0 mg/kg/injection, schedule: Q01DX009 (ip), vehicle: saline 108 % of control | dose: 100.0 mg/kg/injection, schedule: Q04DX003 (ip), vehicle: saline with Tween-80 97 % of control | [14] 94 % of control | [10] 98 % of control | dose: 200.0 mg/kg/injection, schedule: Q01DX009 (ip), vehicle: saline 118 % of control | dose: 200.0 mg/kg/injection, schedule: Q04DX003 (ip), vehicle: saline with Tween-80 95 % of control | [15] 91 % of control | dose: 400.0 mg/kg/injection, schedule: Q01DX005 (ip), vehicle: saline 92 % of control | dose: 400.0 mg/kg/injection, schedule: Q04DX003 (ip), vehicle: saline with Tween-80 91 % of control | [16] 99 % of control

CN(C)c1ccc(/C=N/Nc2c([N+](=O)[O-])cc(C(F)(F)F)cc2[N+](=O)[O-])cc1
inactive: dose: 100.0 mg/kg/injection, schedule: Q01DX009 (ip), vehicle: gum acacia 90 % of control | dose: 200.0 mg/kg/injection, schedule: Q01DX009 (ip), vehicle: gum acacia 88 % of control | dose: 400.0 mg/kg/injection, schedule: Q01DX009 (ip), vehicle: gum acacia 88 % of control

Brc1cc(Br)c2[nH]c3c(Br)cc(Br)cc3c2c1
inactive: [12] 101 % of control | [13] 102 % of control

Nc1c(Br)cc2c(c1Br)C(=O)c1cc(Br)ccc1-2
inactive: [17] 92 % of control | [18] 94 % of control | [19] 97 % of control
